Assay results: US10947242B2, “[1,2,4]triazolo[1,5and#8208;A]pyrimidine compounds as PDE2 inhibitors” (Janssen Pharmaceutica NV, priority 2016, dated 2021)
Like-named read-outs stand apart in the source and are kept apart here.

What was measured:
[1] = target: T1, Human recombinant PDE10A (hPDE10A) (Homo sapiens, UniProt Q9Y233); assay: In vitro assay PDE10A, human clone (SPA, 3H-cAMP hydrolysis); type: biochemical
T1 construct: His tag (inferred from metal chelate purification); made in house; host or cells: Sf9 insect cells (baculovirus)
T1 sequence (Q9Y233 267-1055): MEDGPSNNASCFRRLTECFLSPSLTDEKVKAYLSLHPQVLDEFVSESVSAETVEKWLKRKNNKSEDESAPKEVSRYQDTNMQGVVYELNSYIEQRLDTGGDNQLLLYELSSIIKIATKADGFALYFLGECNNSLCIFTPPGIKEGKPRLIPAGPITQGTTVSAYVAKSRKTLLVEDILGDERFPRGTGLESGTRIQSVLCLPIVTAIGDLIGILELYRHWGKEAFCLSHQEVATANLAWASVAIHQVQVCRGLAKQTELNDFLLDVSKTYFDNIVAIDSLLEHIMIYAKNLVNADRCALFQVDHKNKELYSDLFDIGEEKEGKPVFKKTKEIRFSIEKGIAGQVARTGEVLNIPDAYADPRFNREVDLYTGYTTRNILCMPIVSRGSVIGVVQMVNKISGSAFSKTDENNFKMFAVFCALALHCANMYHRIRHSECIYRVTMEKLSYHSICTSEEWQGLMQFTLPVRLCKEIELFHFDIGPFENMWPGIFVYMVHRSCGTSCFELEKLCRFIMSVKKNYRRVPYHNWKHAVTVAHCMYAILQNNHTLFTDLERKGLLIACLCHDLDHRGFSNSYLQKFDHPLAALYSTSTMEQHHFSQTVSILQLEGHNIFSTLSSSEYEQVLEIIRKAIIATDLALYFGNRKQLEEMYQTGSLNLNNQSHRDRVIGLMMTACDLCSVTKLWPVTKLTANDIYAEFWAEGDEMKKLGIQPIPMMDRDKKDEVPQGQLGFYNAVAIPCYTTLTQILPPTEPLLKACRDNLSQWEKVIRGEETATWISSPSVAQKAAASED
In short: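 Human recombinant PDE10A was expressed in Sf9 cells via baculovirus and incubated with compound in 50 mM Tris pH 7.8, 8.3 mM MgCl2, 1.7 mM EGTA. Substrate was 60 nM cAMP plus 0.008 μCi 3H-cAMP for 60 min at room temperature, read by SPA scintillation counting. Controls used 1% DMSO, and blanks omitted enzyme.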

PDE2A = target: T2, PDE2A (Rattus norvegicus, UniProt Q01062); assay: PDE2 occupancy by test compounds, ex-vivo autoradiography with [3H]B-17a; type: in vivo, Male Wistar rats; settings: for receptor occupancy at 10 mg/kg: percentage receptor occupancy, ex-vivo autoradiography, striatum
T2 construct: Twenty μm-thick striatal sections were cut; from tissue; host or cells: rat brain, striatal sections
T2 sequence (Q01062 1-928): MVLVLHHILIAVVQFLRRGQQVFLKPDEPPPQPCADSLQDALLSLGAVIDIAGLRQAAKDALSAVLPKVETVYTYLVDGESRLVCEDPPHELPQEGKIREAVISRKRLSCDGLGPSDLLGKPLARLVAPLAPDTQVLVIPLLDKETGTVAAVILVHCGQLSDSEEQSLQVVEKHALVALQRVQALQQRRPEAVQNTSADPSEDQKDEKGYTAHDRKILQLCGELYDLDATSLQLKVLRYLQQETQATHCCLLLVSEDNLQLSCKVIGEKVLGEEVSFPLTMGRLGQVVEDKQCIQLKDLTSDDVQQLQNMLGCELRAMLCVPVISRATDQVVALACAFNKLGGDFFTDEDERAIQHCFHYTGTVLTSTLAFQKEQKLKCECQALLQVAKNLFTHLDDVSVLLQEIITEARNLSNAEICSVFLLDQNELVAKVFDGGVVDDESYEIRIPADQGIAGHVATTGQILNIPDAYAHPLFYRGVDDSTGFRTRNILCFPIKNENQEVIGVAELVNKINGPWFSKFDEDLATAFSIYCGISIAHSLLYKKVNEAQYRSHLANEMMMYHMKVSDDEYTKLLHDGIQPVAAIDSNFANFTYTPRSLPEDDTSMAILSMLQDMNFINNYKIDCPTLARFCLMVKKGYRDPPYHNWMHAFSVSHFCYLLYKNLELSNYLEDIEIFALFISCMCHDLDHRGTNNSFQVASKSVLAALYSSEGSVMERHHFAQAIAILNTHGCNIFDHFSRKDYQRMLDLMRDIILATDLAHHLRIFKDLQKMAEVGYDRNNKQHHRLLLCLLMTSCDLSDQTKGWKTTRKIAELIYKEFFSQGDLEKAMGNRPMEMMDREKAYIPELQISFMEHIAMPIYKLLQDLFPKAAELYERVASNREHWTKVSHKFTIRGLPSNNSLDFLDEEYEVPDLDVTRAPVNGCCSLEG

[2] = target: T3, Human recombinant PDE3A (hPDE3A) (Homo sapiens, UniProt Q14432); assay: In vitro assay PDE3A (SPA, 3H-cAMP hydrolysis); type: biochemical; settings: for IC50: hPDE3B pIC50; for Emax: read-out: hPDE3B Emax;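 as to Emax: the method names PDE3A and the table heading PDE3B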
T3 construct: purchased Scottish Biomedical; host or cells: Sf9 insect cells
T3 sequence (Q14432 whole entry): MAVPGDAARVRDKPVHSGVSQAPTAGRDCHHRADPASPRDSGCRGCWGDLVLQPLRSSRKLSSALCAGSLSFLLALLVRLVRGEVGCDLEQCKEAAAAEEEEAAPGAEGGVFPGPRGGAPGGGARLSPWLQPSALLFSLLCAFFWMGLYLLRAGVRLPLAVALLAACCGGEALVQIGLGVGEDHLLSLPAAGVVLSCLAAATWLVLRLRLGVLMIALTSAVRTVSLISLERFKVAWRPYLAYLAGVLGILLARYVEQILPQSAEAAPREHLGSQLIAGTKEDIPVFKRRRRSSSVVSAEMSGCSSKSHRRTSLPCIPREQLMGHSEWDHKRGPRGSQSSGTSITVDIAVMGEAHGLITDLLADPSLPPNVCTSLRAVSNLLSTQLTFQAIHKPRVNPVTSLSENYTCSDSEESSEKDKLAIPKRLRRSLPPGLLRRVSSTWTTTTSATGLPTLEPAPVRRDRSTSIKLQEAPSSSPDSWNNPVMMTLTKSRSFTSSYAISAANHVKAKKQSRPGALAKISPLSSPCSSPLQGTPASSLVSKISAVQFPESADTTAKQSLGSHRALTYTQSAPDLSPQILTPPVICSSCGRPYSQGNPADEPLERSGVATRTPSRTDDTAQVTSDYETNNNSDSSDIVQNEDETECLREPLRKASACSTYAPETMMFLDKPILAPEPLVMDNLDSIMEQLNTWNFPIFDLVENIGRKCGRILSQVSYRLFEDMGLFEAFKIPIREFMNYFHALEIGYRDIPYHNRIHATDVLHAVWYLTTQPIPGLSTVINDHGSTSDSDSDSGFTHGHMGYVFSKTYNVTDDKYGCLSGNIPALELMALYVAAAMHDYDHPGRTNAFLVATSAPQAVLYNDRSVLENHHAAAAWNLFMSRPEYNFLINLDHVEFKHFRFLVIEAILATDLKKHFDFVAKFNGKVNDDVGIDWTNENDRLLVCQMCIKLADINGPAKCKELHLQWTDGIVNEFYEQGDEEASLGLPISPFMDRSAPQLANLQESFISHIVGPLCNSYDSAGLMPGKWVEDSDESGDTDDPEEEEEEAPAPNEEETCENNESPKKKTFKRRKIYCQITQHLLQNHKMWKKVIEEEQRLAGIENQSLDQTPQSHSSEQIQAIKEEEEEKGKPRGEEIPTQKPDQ
In short: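 Human PDE3A, cloned from brain, as partially purified Sf9 lysate. Substrate 0.4 μM cAMP plus [3H]-cAMP (2.4 μCi/ml final) in 50 mM Tris pH 7.8, 8.3 mM MgCl2, 1.7 mM EGTA, 60 min at room temperature, 1% DMSO final. Hydrolysis read by SPA scintillation counting against no-enzyme blanks and DMSO controls.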

[3] = target: T4, Human recombinant PDE2A (hPDE2A) (Homo sapiens, UniProt O00408); assay: In vitro assay PDE2A (SPA, 3H-cGMP hydrolysis); type: biochemical; settings: for Emax: read-out: hPDE2A Emax
T4 construct: His tag (inferred from metal chelate purification); made in house; host or cells: Sf9 insect cells (baculovirus)
T4 sequence (O00408 whole entry): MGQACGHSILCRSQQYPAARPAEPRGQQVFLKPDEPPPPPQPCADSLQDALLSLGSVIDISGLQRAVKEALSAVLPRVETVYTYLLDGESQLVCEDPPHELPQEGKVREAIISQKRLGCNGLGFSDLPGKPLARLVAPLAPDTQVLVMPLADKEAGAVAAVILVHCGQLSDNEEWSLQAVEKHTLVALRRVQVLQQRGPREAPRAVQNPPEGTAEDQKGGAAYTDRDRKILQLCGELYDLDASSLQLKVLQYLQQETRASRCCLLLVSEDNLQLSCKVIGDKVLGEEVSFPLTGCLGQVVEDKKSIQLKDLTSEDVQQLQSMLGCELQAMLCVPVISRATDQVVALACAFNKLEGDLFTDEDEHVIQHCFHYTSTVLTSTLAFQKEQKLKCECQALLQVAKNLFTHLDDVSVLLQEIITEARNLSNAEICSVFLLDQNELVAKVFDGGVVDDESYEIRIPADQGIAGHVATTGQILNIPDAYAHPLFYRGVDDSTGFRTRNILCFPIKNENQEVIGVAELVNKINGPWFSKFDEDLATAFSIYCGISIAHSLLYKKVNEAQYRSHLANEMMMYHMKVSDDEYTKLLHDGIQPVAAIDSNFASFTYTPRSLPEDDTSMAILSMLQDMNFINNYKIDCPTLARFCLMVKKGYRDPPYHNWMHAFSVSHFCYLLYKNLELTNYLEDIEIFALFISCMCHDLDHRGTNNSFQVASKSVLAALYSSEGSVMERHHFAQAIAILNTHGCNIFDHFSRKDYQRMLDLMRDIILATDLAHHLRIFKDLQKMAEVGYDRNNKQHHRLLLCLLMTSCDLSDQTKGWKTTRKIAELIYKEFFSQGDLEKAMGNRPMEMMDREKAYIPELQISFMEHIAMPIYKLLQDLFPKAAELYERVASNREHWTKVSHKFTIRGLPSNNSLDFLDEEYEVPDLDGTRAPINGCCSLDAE

[4] = human clone by default (no (r) mark), read-out: hPDE10A2 or rPDE10A2 Emax
[5] = human clone by default (no (r) mark), read-out: hPDE10A2 or rPDE10A2 pIC50 (converted)
[6] = read-out: hPDE2A pIC50 (converted)
[7] = human clone (h), default, read-out: hPDE10A2 Emax
[8] = human clone (h), default, read-out: hPDE10A2 pIC50 (converted)
[9] = human recombinant PDE2A, 10 μM cGMP substrate, read-out: hPDE2A pIC50 (converted)

SMILES	Emax [1, 4] [%]	IC50 [1, 5] [µM]	IC50 ([2]; read-out: pIC50 (converted)) [µM]	Emax ([2]; read-out: Emax) [%]	Emax [3] [%]	IC50 [3, 6] [µM]	receptor occupancy at 10 mg/kg (PDE2A; po, route PO (oral)) [%]	Emax [1, 7] [%]	IC50 [1, 8] [µM]	IC50 [3, 9] [µM]	Emax ([3]; human recombinant PDE2A) [%]	further results
COc1ccc(C(=O)N2[C@H]3CC[C@H](c4cc(C(F)F)nc5ncnn45)[C@@H]2CC3)cc1OC [Compound 364]	85	1.82	3.16	75	101	0.00389						receptor occupancy at 10 mg/kg (PDE2A; route PO (oral)): -5%
Cc1cc(C(=O)N2CC[C@H](C)[C@@H](c3cc(C(F)F)nc4ncnn34)C2)cc(C)n1 [Compound 220]	41	> 10	> 10				-8					ED50 (PDE2A; po, read-out: PDE Occupancy ED50): > 80 mg/kg; Emax [2]: 8%; hPDE2A Emax [3]: 54; IC50 ([3]; hPDE2A pIC50): 0.302 µM
C[C@@H]1CCN(C(=O)c2cc(Cl)cnc2C(F)(F)F)C[C@H]1c1cc(C(F)F)nc2ncnn12 [Compound 39]			> 10	16	98	0.00832	-8	75	3.09	0.00832	98	
Cc1cc2ccc(C(=O)N3[C@H]4CC[C@H](c5cc(C(F)F)nc6ncnn56)[C@@H]3CC4)cn2c1 [Compound 307]	97			88	99							IC50 ([1]; hPDE10A2 or rPDE10A2 pIC50, human clone by default (no (r) mark)): 0.603 µM; receptor occupancy at 10 mg/kg (PDE2A; route PO (oral)): 8%; IC50 [2]: 1.48 µM; IC50 ([3]; hPDE2A pIC50): 0.00912 µM
Cc1cc([C@@H]2CN(C(=O)c3cc(C4CC4)ncc3Cl)CC[C@H]2C)n2ncnc2n1 [Compound 391]	97	0.0631	2.24	81	99	0.0024	3					
C[C@@H]1CCN(C(=O)c2ccn(C)n2)C[C@H]1c1cc(C(F)F)nc2ncnn12 [Compound 139]			> 10	20	99	0.0288	-11	78	2.4	0.0288	99	
O=C(c1cc(OC(F)F)cc(C2CC2)c1)N1[C@H]2CC[C@H](c3cc(C(F)F)nc4ncnn34)[C@@H]1CC2 [Compound 352]	99	0.479	1.82	89	100	0.00759						receptor occupancy at 10 mg/kg (PDE2A; route PO (oral)): 16%
Cc1cc(C(=O)N2CC[C@@H](C)[C@H](c3cc(C(F)F)nc4ncnn34)C2)cc(C)c1Cl [Compound 76]			1.23	91	99		17	101	0.0316			IC50 ([3]; hPDE2A pIC50): 0.000229 µM; IC50 ([3]; hPDE2A pIC50, human recombinant PDE2A, 10 μM cGMP substrate): 0.000229 µM
Cc1nc(C(=O)N2CC[C@H](C)[C@H](c3cc(C(F)F)nc4ncnn34)C2)ccc1F [Compound 223]	71	3.47	> 10	19	98	0.195	19	71	3.47	0.195	98	
O=C(c1ccc2cccn2c1)N1[C@H]2CC[C@H](c3cc(C(F)F)nc4ncnn34)[C@@H]1CC2 [Compound 291]	95	0.513	2.63	86	101	0.00269						receptor occupancy at 10 mg/kg (PDE2A; route PO (oral)): 38%
Cc1cc([C@@H]2CN(C(=O)c3cc(C)c(F)c(C)c3)CC[C@H]2C)n2ncnc2n1 [Compound 117]			0.851	97	100		8	99	0.00977			IC50 ([3]; hPDE2A pIC50): 0.00115 µM
COc1ncc(C)cc1C(=O)N1CC[C@@H](C)[C@H](c2cc(C(F)F)nc3ncnn23)C1 [Compound 272]	93	0.794	8.91	54	102	0.00219	3	93	0.794			
Cc1ccc(C(=O)N2CC[C@@H](C)[C@H](c3cc(C(F)F)nc4ncnn34)C2)nc1C [Compound 85]			7.76	37	100	0.00646		88	1.2	0.00646	100	receptor occupancy at 10 mg/kg (PDE2A; sc, route SC (subcutaneous)): 1%
Cc1c(C(=O)N2[C@H]3CC[C@H](c4cc(C(F)F)nc5ncnn45)[C@@H]2CC3)oc2ccccc12 [Compound 273]	96	0.977	0.813	96	100	0.00234		96	0.977			receptor occupancy at 10 mg/kg (PDE2A; route SC (subcutaneous)): 65%
Cc1cc(C(=O)N2CC[C@@H](C)[C@H](c3cc(C(F)F)nc4ncnn34)C2)c(C)cn1 [Compound 32]			> 10	31	100	0.00347	-6	81	1.45	0.00347	100	
